Data published in patent US20050222266A1, “2-indanylamino derivatives for the therapy of chronic pain” (priority 2002, published 2005).
pKi: −log10 of the molar value. Where a name gives a salt, the structure may show the parent alone.

Key:
MAO (mono amino oxidase) = experiment: MAO inhibiting activity; type: biochemical
[1] = test system: thermal hyperalgesia produced by CCI; experiment: Chronic Constriction Injury (CCI) model, thermal hyperalgesia (plantar test); type: in vivo; details: rat CCI
Method: (§1) The potential analgesic activity of CHF 3381 was evaluated the Chronic Constriction Injury (CCI) model described by Bennett et al (Pain 1988, 33: 87-107). Briefly, the rat left common sciatic nerve was exposed, and proximal to the sciatic trifurcation about 10 mm of nerve was freed of adhering tissue and four ligatures (4.0 silk ) were loosely tied around it with about 1 mm of spacing.
(§2) Two tests of hind limb withdrawal to thermal and cold stimuli were employed in this study. Each test was repeated on both the operated hind paw and the controlateral hind paw.
Rats were tested for thermal hyperalgesia using a commercial available analgesimeter (Plantar test, Ugo Basile, Comerio Italy) by applying heat stimulus (50 W, 8V) directed onto the plantar surface of each hind paw, and the paw withdrawal latency (s) was determined. Four latency measurements were taken for each hind paw and averaged. The apparatus was calibrated to give a paw withdrawal latency of approximately 10 sec. The results were expressed as the difference score (DS) by subtracting the latency of the control side from the latency of the ligated side; if this difference was less than 1.5 sec, the animal was not included in the experimental groups. CHF 3381 (10-30-60 mg/kg intraperitoneally -i.p.-) or vehicle were administered to animals 14-21 days after ligation and hyperalgesia tested 1, 2 and 4 hours after treatment. CHF3381 reversed the thermal hyperalgesia produced by CCI in a dose- and time-dependent manner with a maximum effect at 60 min after the administration.

[2] = test system: cold allodynia produced by CCI; experiment: Chronic Constriction Injury (CCI) model, cold allodynia; type: in vivo, rat
Method: as §1, §2
Cold allodynia was assessed in operated rats, confining them into a clear plastic cylinders placed upon a metal floor chilled by an underlying water bath. A thermistor placed on the floor indicated a surface temperature of about 5° C. In this experimental condition, after the ligation operated rats respond by lifting the affected hind paw elevated above the floor. […] A maximum cut-off time of 20 sec was set to avoid any possible interference with the sensitivity of the animal to respond to subsequent exposure to the cold stimulus. Animals were pre-screened twice with 20 min interval between tests, in order to select for animals displaying clear signs of cold allodynia, i.e. animals with a paw withdrawal latency on the ligated side of <13 sec in both trials.
The animals were then assigned to groups consisting of at least 10 animals per group. CHF 3381 (10-30-60 mg/kg i.p.) or vehicle were administered to animals 7-14 days after ligation and cold allodynia tested 1 and 2 hours after treatment. CHF 3381 also reversed cold allodynia produced by CCI. This effect was again observed to be both time- and dose-dependent with the results generally concurring with those from the thermal hyperalgesia studies. The effect was maximum at 60-120 min after the administration and significant at the two higher tested doses (Table 1).

[3] = test system: mechanical hyperalgesia in streptozotocin (STZ)-induced diabetic neuropathy; experiment: streptozotocin-induced diabetic neuropathy, paw pressure test; type: in vivo, rat; details: for Nociceptive threshold: 60 minutes before measurement; for % variation of the nociceptive threshold: vs vehicle-treated diabetic group
Method: The objective of this study was to assess the antinociceptive effects of CHF 3381 (25, 50 and 100 mg/kg p.o.) and gabapentin (100 mg/kg p.o) on mechanical hyperalgesia in streptozotocin (STZ)-induced diabetic neuropathy in rats. Diabetes was induced by intraperitoneal injection of STZ (75 mg/kg), and 23 days later its presence was confirmed by measuring of tail vein blood glucose levels and only rats with […] were included in the study.
After 25 days, distilled water, CHF3381 and gabapentin were administered 60 minutes before pain measurement. The nociceptive threshold was evaluated in all groups using a mechanical nociceptive stimulation (paw pressure test).
An increasing pressure (grams of contact pressure) was applied onto the both hind paws of the animal until a nociceptive reaction (vocalisation or paw withdrawal) was determined. The results, expressed as the percentage variation of the nociceptive threshold calculated respect the mean value of the vehicle-treated diabetic group, are reported in Table 2.

[4] = test system: acute pain, hot plate 55° C.; experiment: hot-plate test, mice; type: in vivo; details: 15 min
Method: The effect of CHF 3381 was studied in acute pain with hot-plate test described by Eddy et al (1953). The test was performed on an electrically heated and thermostatically controlled copper surface, set to a temperature of 55 or 51° C. with mice and rats, respectively.
The animals were confined to the hot plate by a transparent observation chamber and the latency to the response consisting of licking of the hind paws, was measured. A cut-off period of 60 sec was used to avoid tissue damage.
After i.p. administration, CHF 3381 (30-45-60 and 100 mg/kg in mouse; 30-37-45 and 60 mg/kg in rats), produced a significant and dose-dependent increase in the latency of the hindpaw licking response compared to vehicle-treated animals (Table 6).

rotarod test, rats = details: rat, in vivo, 15 min before test
Method: The side-effect profile of CHF 3381 was then evaluated in the rotarod test both in mice and rats. The day before the execution of the test, mice and rats were trained to maintain their equilibrium on the test apparatus. For mice, training consisted of 3 subsequent 2 min attempts on a rod rotating from 4.5 r.p.m. to 16.5 r.p.m.; for rats, of 3 subsequent 1 min attempts at 8 rpm (Kinnard and Carr, 1957). The morning of the test day, mice and rats were again tested on the rotarod and only animals able to maintain their equilibrium on the rod were retained for the experimental procedure. CHF 3381 was administered p.o. or i.p. to groups of at least 8 animals 15 min (time of peak effect for neurotoxicity) before the execution of the test. All controls received the corresponding vehicle. The number of mice falling during a 2-min test period and the number of rats falling for 3 subsequent 1-min attempts were used for the calculation of the respective doses at which 50% of the animals display neurotoxicity (TD50).

NMDA receptors channels = details: displacement of [3H]-TPC; cited from earlier work
seizure models = details: in vivo; cited from earlier work
rat MES model = details: cited from earlier work

NC(=O)CNC1Cc2ccccc2C1 [CHF 3381, N-2(indanyl)-glicinamide hydrochloride]
inhibiting activity towards MAO (MAO (mono amino oxidase)): inhibiting activity | Hyperalgesia Difference score (DS) ([1]; 10 mg/kg i.p.): 1.41 ± 0.36 s | Hyperalgesia Difference score (DS) ([1]; 30 mg/kg i.p.): 0.83 ± 0.35 s | Hyperalgesia Difference score (DS) ([1]; 60 mg/kg i.p.): 0.68 ± 0.14 s | Allodynia paw withdrawal latency ([2]; 10 mg/kg i.p., 60 min): 7.75 ± 1.36 s | Allodynia paw withdrawal latency ([2]; 10 mg/kg i.p., 120 min): 8.71 ± 1.88 s | Allodynia paw withdrawal latency ([2]; 30 mg/kg i.p., 60 min): 9.96 ± 1.70 s | Allodynia paw withdrawal latency ([2]; 30 mg/kg i.p., 120 min): 9.89 ± 1.70 s | Allodynia paw withdrawal latency ([2]; 60 mg/kg i.p., 60 min): 11.2 ± 1.33 s | Allodynia paw withdrawal latency ([2]; 60 mg/kg i.p., 120 min): 12.68 ± 1.63 s | Nociceptive threshold ([3]; 25 mg/kg p.o.): 250.0 ± 17.0 g | % variation of the nociceptive threshold ([3]; 25 mg/kg p.o.): 83% | Nociceptive threshold ([3]; 50 mg/kg p.o.): 319.2 ± 48.5 g | % variation of the nociceptive threshold ([3]; 50 mg/kg p.o.): 134% | Nociceptive threshold ([3]; 100 mg/kg p.o.): 287.5 ± 20.3 g | % variation of the nociceptive threshold ([3]; 100 mg/kg p.o.): 110% | latency of the hindpaw licking response ([4]; 30 mg/kg i.p.): 19.40 ± 1.37 s | latency of the hindpaw licking response ([4]; 45 mg/kg i.p.): 20.16 ± 1.73 s | latency of the hindpaw licking response ([4]; 60 mg/kg i.p.): 26.95 ± 2.45 s | latency of the hindpaw licking response ([4]; 100 mg/kg i.p.): 37.71 ± 3.17 s | TD50 at 15 min (rotarod test, rats; ip, i.p. administration): 113 mg/kg | TD50 at 15 min (rotarod test, rats; oral administration): 299 mg/kg | pKi (NMDA receptors channels): 5.06 | antagonism of 4-aminopyridine- and bicuculline-induced tonic seizures (seizure models): weaker antagonist | behavioral effects and lethality of systematically administered NMDA (seizure models): antagonize | effect against maximal electroshock seizures, picrotoxin- and NMDA-induced hind limb tonic extension (seizure models): very effective | effect against pentylentetrazole- and picrotoxin-induced clonic seizures (seizure models): ineffective | anti-convulsivant activity (rat MES model): anti-convulsivant activity
